Measured values as given in PubChem BioAssay (NCI).
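How tested: cells in 96-well plates exposed to compound for 48 hours at five concentrations. The concentration for 50% growth inhibition is given as GI50. TGI: total growth inhibition.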

How the values were obtained:
Assay in all cases: DTP human tumour cell line panel, 48 h
786-0 renal = tested on: 786-0 renal
HCT-15 colon = tested on: HCT-15 colon
HOP-62 NSCLC = tested on: HOP-62 NSCLC
KM12 colon = tested on: KM12 colon
M14 melanoma = tested on: M14 melanoma
SK-MEL-28 melanoma = tested on: SK-MEL-28 melanoma
SN12C renal = tested on: SN12C renal
TK-10 renal = tested on: TK-10 renal
U251 CNS = tested on: U251 CNS
UACC-257 melanoma = tested on: UACC-257 melanoma

Row | Compound | TGI (786-0 renal) [µM] | TGI (HCT-15 colon) [µM] | TGI (HOP-62 NSCLC) [µM] | TGI (KM12 colon) [µM] | TGI (M14 melanoma) [µM] | TGI (SK-MEL-28 melanoma) [µM] | TGI (SN12C renal) [µM] | TGI (TK-10 renal) [µM] | TGI (U251 CNS) [µM] | TGI (UACC-257 melanoma) [µM] | GI50 (786-0 renal) [µM] | GI50 (HCT-15 colon) [µM] | GI50 (HOP-62 NSCLC) [µM] | GI50 (KM12 colon) [µM] | GI50 (M14 melanoma) [µM] | GI50 (SK-MEL-28 melanoma) [µM] | GI50 (SN12C renal) [µM] | GI50 (TK-10 renal) [µM] | GI50 (U251 CNS) [µM] | GI50 (UACC-257 melanoma) [µM]
1 | Cc1ccc(C2=C(Cl)C(=O)C(c3ccc(C)cc3)=C(Cl)C2=O)cc1 | > 100 | > 100 | > 100 | > 100 | > 100 | > 100 | > 100 | > 100 | > 100 | > 100 | – | – | – | – | – | – | – | – | – | –
2 | CC1=C(CNO)C2=C(C)C3(CC3)[C@@](C)(O)C(=O)C2=C1 | 6.88 | 4.99 | 4.57 | 27.4 | 5.04 | 6.05 | > 100 | 8.4 | > 100 | 7.64 | 2.53 | 1.71 | 0.61 | 3.72 | 1.92 | 2.37 | 2.77 | 3.24 | 2.39 | 2.78
3 | CN(C)c1ccc(N=C2C=CC(=C(C#N)C#N)c3ccccc32)cc1 | 11.4 | 4.72 | 15.3 | 12 | 8.79 | 20.5 | 15.9 | 16.4 | 6.53 | 10.9 | – | – | – | – | – | – | – | – | – | –
4 | N#CCC1(n2cc(-c3ncnc4[nH]ccc34)cn2)CN(C2CCN(C(=O)c3ccnc(C(F)(F)F)c3F)CC2)C1 | > 100 | > 100 | > 100 | > 100 | > 100 | > 100 | > 100 | > 100 | > 100 | > 100 | > 100 | > 100 | > 100 | 36.1 | > 100 | > 100 | 69.8 | 55.3 | > 100 | > 100
5 | O=C(Oc1ccc2c(c1)CN(Cc1ccccc1)CO2)c1ccccc1 | 30.7 | 36.2 | 38.6 | 44.7 | 32 | 41.2 | 34.1 | 29.8 | 31.2 | 29.5 | – | – | – | – | – | – | – | – | – | –
6 | COc1c(O)c2c3c(c1OC)-c1ccccc1CC3N(S(=O)(=O)c1ccc(C)cc1)CC2 (centres undefined) | > 50 | > 50 | > 50 | > 50 | > 50 | > 50 | > 50 | > 50 | > 50 | > 50 | 4.89 | 2.05 | 2.77 | 1.76 | 1.81 | 2.51 | 2.59 | 7.96 | 1.69 | 1.8
7 | CCCCCCCCCCCCOC1C(C(CC(=O)N2CCN(Cc3ccc4c(c3)OCO4)CC2)NS(=O)(=O)c2cc(Cl)cc(Cl)c2)OC2OC(C)(C)OC21 (centres undefined) | > 86.5 | > 100 | > 100 | > 100 | > 100 | > 100 | 43.2 | > 100 | > 100 | > 100 | 20.4 | > 100 | 86.5 | 18.1 | 61.1 | > 100 | 15.6 | 58 | 12.5 | 59.1
8 | CN(C)c1ccc(C2CC(C)(O)Oc3cc4c(cc32)OCO4)cc1 (centres undefined) | > 100 | > 100 | > 100 | > 100 | > 100 | > 100 | > 100 | > 100 | > 100 | > 100 | – | – | – | – | – | – | – | – | – | –
9 | CNCc1ccc(-c2[nH]c3cc(F)cc4c3c2CCNC4=O)cc1 | 41.5 | > 100 | 43.4 | 45.3 | 32.7 | 32 | 48 | 72.7 | 57.7 | 33.2 | 19 | 35.8 | 14.9 | 20 | 16.6 | 15.6 | 16.5 | 29.2 | 16 | 17
10 | C=C(Cn1c2ccccc2c(=O)c2ccccc21)c1ccc(C(=O)Nc2ccccc2N)cc1 | > 100 | > 100 | > 100 | > 100 | > 100 | > 100 | > 100 | > 100 | > 100 | > 100 | 1.89 | 3.48 | > 27.3 | 2.43 | 12.2 | > 100 | > 100 | > 28.9 | 8.1 | > 100
11 | Nc1nc(=S)[nH]c(C(=O)Nc2nccs2)c1-c1ccccc1 | > 100 | > 100 | > 100 | > 100 | > 100 | > 100 | > 100 | > 100 | > 100 | > 100 | – | – | – | – | – | – | – | – | – | –
12 | CC1=C2[C@@H](CC1)[C@]1(C)O[C@@](C3CC3)(C[C@H]1OC(=O)CO)[C@H]2OC(=O)/C=C/c1ccccc1 | 25.7 | 29.3 | 30.2 | 32.3 | 32.3 | 36.3 | 25.4 | 33.8 | 29.3 | 32.9 | 3.19 | 13.6 | 15.4 | 16.6 | 16.4 | 18.6 | 0.736 | 18.7 | 15.6 | 17.7
13 | COc1cc(OC)cc(-c2ccc(-c3ccc(C(=N)N)cn3)s2)c1 | 3.72 | 3.49 | 3.67 | 3.48 | 3.47 | 3.43 | 3.8 | 4.09 | 3.49 | 4.49 | 1.98 | 1.81 | 1.8 | 1.84 | 1.79 | 1.84 | 1.78 | 2.06 | 1.8 | 2.29
14 | C#Cc1cccc(NC(=O)C2CCCN(C(=O)CCl)C2)c1 (centres undefined) | > 82.5 | > 82.5 | > 82.5 | > 82.5 | > 82.5 | > 82.5 | > 82.5 | > 82.5 | > 82.5 | > 82.5 | > 82.5 | 28.3 | > 82.5 | > 82.5 | 29.9 | > 82.5 | 19.7 | > 82.5 | > 82.5 | > 82.5
15 | CNCc1cccc2c1OCCOCCOCCC(C)S(=O)(=O)c1ccc(cc1)-c1cnc(N)c(n1)C(=O)N2 (centres undefined) | 2.06 | 6.2 | 4.82 | 6.78 | 3.03 | 3.37 | 3.14 | 8.25 | 3.62 | 4.55 | 0.516 | 1.11 | 1.14 | 1.69 | 1.27 | 1.77 | 1.24 | 1.37 | 1.15 | 1.91
16 | O=c1nc2[nH]c3c(-c4n[nH]c(=O)[nH]c4=O)cccc3c2n[nH]1 | > 100 | > 100 | > 100 | > 100 | > 100 | > 100 | > 100 | > 100 | > 100 | > 100 | > 100 | > 100 | > 100 | > 100 | > 100 | > 100 | > 100 | > 100 | > 100 | > 100
17 | COc1ccc(/C(C)=C(\c2ccc(Cl)cc2)c2ccc(OCCN3CCCCCC3)cc2)cc1F | 5.11 | 2.85 | 6.72 | 7.04 | 7.18 | 4.9 | 8.3 | 14 | 7.59 | 7.87 | 2.56 | 0.668 | 3.33 | 1.7 | 2.74 | 2.54 | 2.96 | 4.28 | 2.79 | 3.4
18 | COc1cc(CCc2ccc(OC(C)=O)cc2)cc(OC)c1OC | > 100 | > 100 | > 100 | > 100 | > 100 | > 100 | > 100 | > 100 | > 100 | > 100 | – | – | – | – | – | – | – | – | – | –
19 | Cc1ccc(S(=O)(=O)N2CCC(C(=O)O)(c3ccccc3)CC2)cc1 | > 100 | > 100 | > 100 | > 100 | > 100 | > 100 | > 100 | > 100 | > 100 | > 100 | – | – | – | – | – | – | – | – | – | –
20 | O=C(OC[C@@H]1CO1)c1cccc2c(=O)c3ccccc3[nH]c12 | 2.69 | 3.36 | 3.45 | 0.771 | 1.65 | 2.07 | 1.41 | – | 3.69 | 4.31 | 0.349 | 0.307 | 0.357 | 0.245 | 0.344 | 0.396 | 0.196 | 0.646 | 0.279 | 0.517
21 | CC1(C)CC[C@]2(C(=O)O)CC[C@]3(C)C(=CC[C@@H]4[C@@]5(C)C/C(=C/c6ccco6)C(=O)C(C)(C)[C@@H]5CC[C@]43C)[C@@H]2C1 | 26.5 | 13.4 | 14.9 | 11.6 | 21.6 | 17.4 | 19.2 | 89.8 | 15 | 35.6 | 4.12 | 2.5 | 3.75 | 2.77 | 4.51 | 4.35 | 3.37 | 6.11 | 3.45 | 6.24
22 | COc1cccc(C2C(C#N)=C(N)Oc3cc4c(cc32)OCO4)c1 (centres undefined) | 24.1 | > 43.5 | 27.2 | 4.27 | 16.3 | 32.6 | > 46.2 | 48.4 | 12.1 | 28.1 | 0.0621 | 0.0525 | 0.0501 | 0.0404 | 0.059 | 0.0813 | 0.0778 | 0.728 | 0.0449 | 0.0471
23 | O=C1CCS/C(=N/S(=O)(=O)c2ccc(N3N=C4c5ccccc5CC4C3c3cccs3)cc2)N1Cc1ccccc1 (centres undefined) | 32.4 | 31.7 | 34 | 41 | 30.1 | > 100 | 38.3 | 37.6 | 32.1 | 50.7 | 17.1 | 15.9 | 18.6 | 17.1 | 15.3 | 42.1 | 18.5 | 17.7 | 14.4 | 24.2
24 | N/C(=N\C(N)=N\c1nc2ccccc2s1)c1cnccn1 | > 100 | > 100 | 16.1 | > 100 | > 100 | 6.06 | > 100 | 7.96 | 14.9 | 5.26 | 2.97 | 3.12 | 2.92 | 3.37 | 3.21 | 2.3 | 4.18 | 2.53 | 2.96 | 2.13
